Measurements: patent US5214034A, “Catechol derivatives, and preventive and remedial preparations for regressive disorders in the central nervous system containing the same” (priority 1986, dated 1993)
Where two headings read alike, the source gives them in different places.

Columns and labels:
Acute toxicity (LD50) = conditions: mouse, in vivo
Protocol: The catechol derivative having normal type saturated lower alkyl groups on the ring was administered by intravenous injection (i.v.), intraperitoneal injection (i.p.) or oral route (p.o.) to male ddy mice of 4-week old. The LD50 values (mg/kg) were measured by an ordinary method.

NGF = NGF production in the central nervous system of normal rats by intraperitoneal injection (NGF content of brain tissue, ELISA); type: in vivo, rat (Wistar male); conditions: Table 7, i.p., three times every other day
Protocol: The derivative (A), e.g. R=Two H, R1 =H and R2 =n-propyl (hereinafter referred to as 4-n-propylcatechol), was administered to normal rats by intraperitoneal injection, and the effect was examined.
4-n-Propylcatechol was administered by intraperitoneal injection 4 times every other day in a dosage of 5 mg/kg. The rats were killed two days after the final administration. The NGF content of each parts in brain was measured. The content was compared with those of control group which was administered saline alone.
A variety of the derivative was administered three times every other day. The content of NGF in the forebrain after 48 hours and 7 days from the final administration was measured and illustrated in Table 7.
Wistar male rats (9-10-week old, 200-250 g of weight) were intraperitoneally injected with the test derivative in a volume of 0.5 ml as a saline solution, emulsion or suspension. Dose and administration times were the same as above. The rats were killed by a hard spinal blow two days after the final administration. Each parts of brain were dissected and subjected to the following treatment under ice cooling.
Each parts of brain were weighed and homogenized for 30 strokes by a Dounce type homogenizer in a homogenization buffer (0.1 M Tris-HCl, containing 2% bovine serum albumin fraction V, 2% gelatin, 1.0 M NaCl, 0.02% NaN3, 2 mM EDTA and 2.6 kiu/ml of aprotinin, pH 7.6) at a concentration of 10% (W/V) (only septum 5% (W/V)). Each homogenate was centrifuged at 100,000 xg for 10 minutes, and 50 μl of supernatant was added with the same amount of a dilution buffer (0.1 M Tris-HCl containing 2% bovine serum albumin fraction V, 0.05% NaN3 and 20 mM CaCl2, pH 7.6). Determination was conducted in accordance with a method of S. Furukawa et al. by using a high sensitivity ELISA system on 8-NGF which was described in J. Neurochem., 40, 734-744 (1983). Lower limit of determination is 0.25 pg/ml. Data are indicated as a mean value ±SE on the NGF content of tissue (pg/mg wet tissue) of five rats.

[1] = test system: rats injected with kainic acid at basal forebrain / sham-operated rats; assay: Retention of passive avoidance learning: prevention of retention deficits; type: in vivo, rat (male Sprague-Dawley); conditions: Table 8, i.p. 5 mg/kg on days 1, 4, 7
Protocol: (§1) Effects of the derivative on the behavioral parameters of rats injected with kainic acid at basal forebrain were characterized with regard to both prevention against deficits in retention of passive avoidance learning and promotion of recovery from damaged state by repeated learning.
(§2) Male Sprague-Dawley rats (9-10 weeks of age, 200-250 g of weight) were anesthetized with Nembutal (50 mg/kg, i.p.) and placed in a stereotaxic apparatus. Bilateral lesions of the ventral globus pallidus were made by direct stereotaxic application (0.7 mm posterior to bregma, 2.7 mm lateral to the midline, and 7.0 mm ventral to the brain surface) of 0.25 μg of kainic acid in 1 μl of PBS (pH 7.4) to prepare disordered models. Controls were sham-operated rats injected with PBS in place of kainic acid solution.
(§3) Passive avoidance procedures were performed by using a two chambered step-through passive avoidance apparatus with a guillotine door. A 3 mA scrambled shock was delivered to the dark floor grids for 3 seconds as a punishment. Habituation trial was conducted prior to the acquisition trial. Each rats were placed in the illuminated chamber and the guillotine door was raised after 10 seconds. As soon as the rats entered into the dark chamber, the door was lowered. The rats were removed after 10 seconds and returned to their home cages. […] The acquisition trial was performed similarly to the habituation trial. In the former case, a rat was placed in the illuminated room and the door was opened after 10 seconds. The door was shut immediately after the rat entered into the dark room, a scrambled foot shock was applied, and then the animal was removed. The latency to enter the dark chamber after opening the door was recorded for 300 seconds in the retention of passive avoidance. The latency exceeding 300 seconds was calculated as 300 seconds.
The preventive effects on deficits in retention were estimated by using 60 rats. Thirty rats were injected with kainic acid and other 30 rats were sham-operated with PBS.
Each groups of animals were equally divided into three groups which were received intraperitoneally 5 mg/kg of the derivative (A) (R=2H, R1 =H, R2 =n-propyl, that is, 4-n-propylcatechol), derivative A (R=--CO--, R1 =H, R2 =n-propyl) and saline respectively as a saline solution on one, four and seven days after the operation.
Table 8 illustrates the results obtained by conducting the acquisition trial 10 days after the operation and the retention test after 24 hours.

[2] = test system: rats injected with kainic acid at basal forebrain; assay: Promotion of recovery from retention deficits by repeated learning (passive avoidance); type: in vivo, rat (male Sprague-Dawley); set-up: key: latency in seconds to enter dark chamber, capped at 300 s; conditions: Table 9, i.p. 5 mg/kg before each trial
Protocol: as §1, §2, §3
The promoting effects on the recovery by repeated training from the damaged state of retention were acessed by using 30 rats injected with kainic acid. Rats were subjected to the acquisition trial 10 days after the operation. The rats were equally divided into 3 groups after 24 hours and injected intrapenitroneally with 5 mg/kg of 4-n-propylcatechol and the derivative (A) (R=--CO--, R=H, R2 =n-propyl) respectively as a saline solution. The remaining 10 rats were intraperitoneally injected with saline alone. The first retention trial was carried out two days after the injection. Rats which entered into the dark chamber within 30 seconds were punished by the scrambled foot shock as a training. On the next day, all animals were administered again the same amount of test derivative or saline. These animals were subjected to the second retention trial two days after the second injection.
Retention trials, punishments and additional administrations were repeated as mentioned above four times in all.

CCCc1ccc2oc(=O)oc2c1 [R = --CO--, R1 = H, R2 = n-Propyl]
LD50 (Acute toxicity (LD50); ip, intraperitoneal injection, read-out: LD50 i.p.): > 1000 mg/kg | LD50 (Acute toxicity (LD50); intravenous injection, read-out: LD50 i.v.): > 250 mg/kg | LD50 (Acute toxicity (LD50); oral route, read-out: LD50 p.o.): > 2500 mg/kg | NGF content after 48 hr. (NGF; 48 hours after final administration): 1.66 ± 0.23 pg/mg wet tissue of frontal co | NGF content after 7 days (NGF; 7 days after final administration): 2.23 ± 0.39 pg/mg wet tissue of frontal co | Animals with more than 150 sec of latency ([1]; rats operated with kainic acid): 4 in 10 animals | Mean latency ([1]; rats operated with kainic acid, *P < 0.01 vs control): 152 ± 29 s | Animals with more than 150 sec of latency ([1]; sham-operated rats): 10 in 10 animals | Mean latency ([1]; sham-operated rats): 291 ± 7 s | Mean latency, 1st retention trial [2]: 46 ± 13 | Mean latency, 4th retention trial ([2]; **P < 0.01): 284 ± 15 | Mean latency, 2nd retention trial ([2]; *P < 0.05): 167 ± 31 | Mean latency, 3rd retention trial ([2]; *P < 0.05): 236 ± 28
